{"source": "patent US20250113823A1", "about": "“Arthropod Control Compositions” (priority 2022, published 2025)", "test_system": "Aedes aegypti", "test": "Warm Body assay, mosquito landings on treated warm body", "type": "in vivo", "settings": "Aedes aegypti, read-out: Percentage of repellence of mosquitoes Aedes aegypti landing on the warm body", "in_short": "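Compounds in ethanol (100 μL, various concentrations) were applied to a sandblasted glass dish covering the warm body (28.3 cm^2), with ethanol as control. Landings were counted automatically from 30 non-blood-fed, sugar-fed Aedes aegypti Rockefeller females aged 5–10 days, under 150 lux.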", "data": [{"smiles": "CCCc1cc(OC)c(OC)c(OC)c1", "note": "[compound 1975, 1,2,3-trimethoxy-5-propylbenzene]", "values": [{"measurement": "pest or weed control at 3.2 µg/mL", "setting": "0.0032 mg/mL (Table 1)", "value": 33, "unit": "%"}, {"measurement": "pest or weed control at 7.1 µg/mL", "setting": "0.0071 mg/mL (Table 1)", "value": 10, "unit": "%"}, {"measurement": "pest or weed control at 16 µg/mL", "setting": "0.016 mg/mL (Table 1)", "value": 0, "unit": "%"}, {"measurement": "pest or weed control at 35.7 µg/mL", "setting": "0.0357 mg/mL (Table 1)", "value": 66, "unit": "%"}, {"measurement": "pest or weed control at 53 µg/mL", "setting": "0.053 mg/mL (Table 1)", "value": 30, "unit": "%"}, {"measurement": "pest or weed control at 80 µg/mL", "setting": "0.08 mg/mL (Table 1)", "value": 93, "unit": "%"}, {"measurement": "pest or weed control at 119 µg/mL", "setting": "0.119 mg/mL (Table 1)", "value": 36, "unit": "%"}, {"measurement": "pest or weed control at 178 µg/mL", "setting": "0.178 mg/mL (Table 1)", "value": 83, "unit": "%"}, {"measurement": "pest or weed control at 267 µg/mL", "setting": "0.267 mg/mL (Table 1)", "value": 87, "unit": "%"}, {"measurement": "pest or weed control at 400 µg/mL", "setting": "0.4 mg/mL (Table 1)", "value": 94, "unit": "%"}, {"measurement": "pest or weed control at 598 µg/mL", "setting": "0.598 mg/mL (Table 1)", "value": 99, "unit": "%"}, {"measurement": "pest or weed control at 890 µg/mL", "setting": "0.89 mg/mL (Table 1)", "value": 95, "unit": "%"}, {"measurement": "pest or weed control at 2000 µg/mL", "setting": "2 mg/mL (Table 1)", "value": 96, "unit": "%"}, {"measurement": "pest or weed control at 4470 µg/mL", "setting": "4.47 mg/mL (Table 1)", "value": 98, "unit": "%"}, {"measurement": "pest or weed control at 10000 µg/mL", "setting": "10 mg/mL (Table 1)", "value": 96, "unit": "%"}]}]}
